Results as given in patent publication US8889705B2, “Noscapine analogs and their use in treating cancers” (Emory University, priority 2007, dated 2014).
Like-named read-outs stand apart in the source and are kept apart here.

Key:
[1] = target: T1, tubulin; experiment: Tubulin binding assay (fluorescence titration, quenching of intrinsic tubulin fluorescence); parameters: species or system mammalian; settings: 2 μM tubulin, 45 min at 37° C., double reciprocal plot; read-out: dissociation constant (Kd) for binding to tubulin
T1 construct: other: 2 μM tubulin, 45 min at 37° C., double reciprocal plot; rate and extent of tubulin polymerization; other: 25 μM or 100 μM
Description: Fluorescence titration for determining the tubulin binding parameters was performed as described previously (Gupta and Panda, 2002). In brief, 9-nitro-nos (0-100 μM) was incubated with 2 μM tubulin in 25 mM PIPES, pH 6.8, 3 mM MgSO4 and 1 mM EGTA for 45 min at 37° C. The relative intrinsic fluorescence intensity of tubulin was then monitored in a JASCO FP-6500 spectrofluorometer (JASCO, Tokyo, Japan) using a cuvette of 0.3-cm path length, and the excitation wavelength was 295 nm. The fluorescence emission intensity of 9-nitro-nos at this excitation wavelength was negligible. A 0.3-cm path-length cuvette was used to minimize the inner filter effects caused by the absorbance of 9-nitro-nos at higher concentration ranges. In addition, the inner filter effects were corrected using a formula Fcorrected=Fobserved·antilog [(Aex+Aem)/2], where Aex is the absorbance at the excitation wavelength and Aem is the absorbance at the emission wavelength. The dissociation constant (Kd) was determined by the formula: 1/B=Kd/[free ligand]+1, where B is the fractional occupancy and [free ligand] is the concentration of free noscapine or 9-nitro-nos. The fractional occupancy (B) was determined by the formula B=ΔF/ΔFmax, where ΔF is the change in fluorescence intensity when tubulin and its ligand are in equilibrium and ΔFmax is the value of maximum fluorescence change when tubulin is completely bound with its ligand. ΔFmax was calculated by plotting 1/ΔF versus 1/ligand using total ligand concentration as the first estimate of free ligand concentration.
Fluorescence titration for determining the tubulin binding parameters was performed as described previously. In brief, 9-F-nos, 9-Cl-nos, 9-Br-nos or 9-I-nos (0-100 μM) was incubated with 2 μM tubulin in 25 mM PIPES, pH 6.8, 3 mM MgSO4, and 1 mM EGTA for 45 min at 37° C. The relative intrinsic fluorescence intensity of tubulin was then monitored in a JASCO FP-6500 spectrofluorometer (JASCO, Tokyo, Japan) using a cuvette of 0.3-cm path length, and the excitation wavelength was 295 nm. The fluorescence emission intensity of noscapine and its derivatives at this excitation wavelength was negligible. A 0.3-cm path-length cuvette was used to minimize the inner filter effects caused by the absorbance of these agents at higher concentration ranges. In addition, the inner filter effects were corrected using a formula F corrected=F observe·antilog [(Aex+Aem)/2], where Aex is the absorbance at the excitation wavelength and Aem is the absorbance at the emission wavelength. The dissociation constant (Kd) was determined by the formula: 1/B=Kd/[free ligand]+1, where B is the fractional occupancy and [free ligand] is the concentration of 9-F-nos, 9-Cl-nos, 9-Br-nos or 9-I-nos. The fractional occupancy (B) was determined by the formula B=ΔF/ΔFmax, where ΔF is the change in fluorescence intensity when tubulin and its ligand are in equilibrium and ΔFmax is the value of maximum fluorescence change when tubulin is completely bound with its ligand. ΔFmax was calculated by plotting 1/ΔF versus 1/[free ligand].

[2] = system: CEM cells; experiment: In vitro cell proliferation MTS assay; assay type: cell-based; settings: Homo sapiens, CCRF-CEM, 72 hours
Description: (§1) Suspension cells (CEM, CEMNLB100 and CEM/VM-1-5) were cultured in RPMI-1640 media containing 10% FBS and then seeded into 96-well plates at a density of 5×10^3 cells per well and were treated with increasing gradient concentrations of 9-nitro-nos for 72 hours. Measurement of cell proliferation was performed colorimetrically by 3-(4,5-dimethylthiazol-2-yl)-5-(3-carboxymethoxyphenyl)-2-(4-sulphophenyl)-2H-tetrazolium, inner salt (MTS) assay, using the CellTiter96 AQueous One Solution Reagent (Promega, Madison, Wis.). Cells were exposed to MTS for 3 hours and absorbance was measured using a microplate reader (Molecular Devices, Sunnyvale, Calif.) at an optical density (OD) of 490 nm. The percentage of cell survival as a function of drug concentration for both the assays was then plotted to determine the IC50 value, which stands for the drug concentration needed to prevent cell proliferation by 50%.
as §1, with “(CEM)” for “(CEM, CEMNLB100 and CEM/VM-1-5)”, “were” for “were cultured in RPMI-1640 media containing 10% FBS and then”, “increasing” for “increasing gradient”, “all halogenated analogs” for “9-nitro-nos”

[3] = system: MCF-7 cells; experiment: Sulforhodamine B cell proliferation assay; assay type: cell-based, human; settings: MCF-7, 72 hours, SRB
Description: (§2) Sulforhodamine B (SRB) assay: The cell proliferation assay was performed in 96-well plates as described previously. Adherent cells (MCF-7 and MDA-MB-231) were seeded in 96-well plates at a density of 5×10^3 cells per well. They were treated with increasing concentrations of the halogenated analogs the next day while in log-phase growth. After 72 hours of drug treatment, cells were fixed with 50% trichloroacetic acid and stained with 0.4% sulforhodamine B dissolved in 1% acetic acid. After 30 minutes, cells were then washed with 1% acetic acid to remove the unbound dye. The protein-bound dye was extracted with 10 mM Tris base to determine the optical density at 564-nm wavelength.

[4] = system: MDA-MB-231 cells; experiment: Sulforhodamine B cell proliferation assay; assay type: cell-based; settings: Homo sapiens; MDA-MB-231, 72 hours, SRB
Description: as §2

[5] = system: MCF-7 cells; experiment: Cell cycle analysis (propidium iodide, flow cytometry); assay type: cell-based, human; settings: for G0/G1 / G2/M / S / Sub-G1: MCF-7, 25 μM, mean ± S.E.M.
Description: The flow cytometric evaluation of the cell cycle status was performed as described previously. Briefly, 2×10^6 cells were centrifuged, washed twice with ice-cold PBS, and fixed in 70% ethanol. Tubes containing the cell pellets were stored at 4° C. for at least 24 hours. Cells were then centrifuged at 1000×g for 10 min and the supernatant was discarded. The pellets were washed twice with 5 ml of PBS and then stained with 0.5 ml of propidium iodide (0.1% in 0.6% Triton-X in PBS) and 0.5 ml of RNase A (2 mg/ml) for 45 minutes in dark. Samples were then analyzed on a FACSCalibur flow cytometer (Beckman Coulter Inc., Fullerton, Calif.).

[6] = system: MDA-MB-231 cells; experiment: DAPI staining, cell morphology by fluorescence microscopy; assay type: cell-based, human; settings: 25 μM, 72 hours
Description: Cell morphology was evaluated by fluorescence microscopy following DAPI staining (Vectashield, Vector Labs, Inc., Burlingame, Calif.). MDA-MB-231 cells were grown on poly-L-lysine coated coverslips in 6-well plates and were treated with the halogenated analogs at 25 μM for 72 hours. After incubation, coverslips were fixed in cold methanol and washed with PBS, stained with DAPI, and mounted on slides. Images were captured using a BX60 microscope (Olympus, Tokyo, Japan) with an 8-bit camera (Dage-MTI, Michigan City, Ind.) and IP Lab software (Scanalytics, Fairfax, Va.). Apoptotic cells were identified by features characteristic of apoptosis (e.g. nuclear condensation, formation of membrane blebs and apoptotic bodies).

[7] = target: T1, tubulin; settings: values with literature reference [18], [12], [43]; read-out: dissociation constant (Kd) for binding to tubulin; cited from earlier work

## COc1ccc2c(c1OC)C(=O)O[C@@H]2[C@H]1c2c(c(I)c3c(c2OC)OCO3)CCN1C [9-I-nos, (S)-6,7-dimethoxy-3-((R)-4-methoxy-6-methyl-9-iodo-5,6,7,8-tetrahydro-[1,3]dioxolo[4,5-g]isoquinolin-5-yl)isobenzofuran-1(3H)-one]
[1]
  Kd: 22 ± 4 µM
[2]
  IC50: 38.9 ± 3.5 µM
[3]; Homo sapiens, MCF7, 72 h
  IC50: 45.6 ± 3.1 µM
[4]
  IC50: 25.6 ± 2.4 µM
[5]; 0 h
  G0/G1: 60.6 ± 4.6%
  G2/M: 23.1 ± 3.7%
  S: 13.9 ± 2.3%
  Sub-G1: 0.3 ± 0.2%
[5]; 24 h
  G0/G1: 17 ± 2.3%
  G2/M: 44.5 ± 5.1%
  S: 3.1 ± 1.3%
  Sub-G1: 7.7 ± 1.7%
[5]; 48 h
  G0/G1: 15.4 ± 4.5%
  G2/M: 25.9 ± 4.1%
  S: 2.9 ± 0.6%
  Sub-G1: 28.1 ± 3.1%
[5]; 72 h
  G0/G1: 17 ± 1.9%
  G2/M: 20.7 ± 2.2%
  S: 4.9 ± 2.2%
  Sub-G1: 30.1 ± 3.1%
[6]
  nuclear morphology (features of apoptotic cells), DAPI: condensed chromosomes, numerous fragmented micronuclei, and apoptotic bodies are evident

## COc1ccc2c(c1OC)C(=O)OC2C1c2c(c(Cl)c3c(c2OC)OCO3)CCN1C (stereo not drawn) [9-Cl-nos]
[1]
  Kd: 40 ± 8 µM
[2]
  IC50: 1.2 ± 0.3 µM
[3]; Homo sapiens, MCF7, 72 h
  IC50: 1.9 ± 0.3 µM
[3]
  IC50: 3.5 ± 0.4 µM
[4]
  IC50: 1.9 ± 0.3 µM
[5]; 0 h
  G0/G1: 69 ± 5.6%
  G2/M: 20.7 ± 3.4%
  S: 7.5 ± 1.6%
  Sub-G1: 1.4 ± 0.5%
[5]; 24 h
  G0/G1: 11.5 ± 2.7%
  G2/M: 59.7 ± 5.2%
  S: 4.3 ± 1.4%
  Sub-G1: 15.3 ± 2.5%
[5]; 48 h
  G0/G1: 8 ± 3.3%
  G2/M: 42.4 ± 3.8%
  S: 4 ± 1.1%
  Sub-G1: 37.8 ± 3.2%
[5]; 72 h
  G0/G1: 5.9 ± 1.9%
  G2/M: 35.3 ± 3.9%
  S: 4.1 ± 1.4%
  Sub-G1: 50.2 ± 2.5%
[5]; MCF-7, lower doses (5 μM and 10 μM), 72 hours
  percent sub-G1 cells compared with noscapine: higher
[6]
  nuclear morphology (features of apoptotic cells), DAPI: condensed chromosomes, numerous fragmented micronuclei, and apoptotic bodies are evident
[7]
  Kd: 40 ± 8 µM
